Counter-ions that a name gives are not always drawn.
Each molecule was assayed on Acinetobacter baumannii ATCC17961 (assay: 90% growth inhibitory concentration (IC90) determination, antimicrobial susceptibility testing). Conditions: 90% growth inhibition, Iso-Sensitest broth, OD 600 nm over 16 h, 35±2° C.; read-out: ATCC 17961 IC90.
Format: cell-based
Description: Antimicrobial Susceptibility Testing:
90% Growth Inhibitory Concentration (IC90) Determination
The in vitro antimicrobial activity of the compounds was determined according to the following procedure:
The assay used a 10-points Iso-Sensitest broth medium to measure quantitatively the in vitro activity of the compounds against Acinetobacter baumannii ATCC17961 and ATCC17978.
Stock compounds in DMSO were serially twofold diluted (e.g. range from 50 to 0.097 μM final concentration) in 384 wells microtiter plates and inoculated with 49 μl the bacterial suspension in Iso-Sensitest medium to have a final cell concentration of ˜5×10^(5) CFU/ml in a final volume/well of 50 ul/well. Microtiter plates were incubated at 35±2° C.
Bacterial cell growth was determined with the measurement of optical density at λ=600 nm each minutes over a time course of 16 h. Growth inhibition was calculated during the logarithmic growth of the bacterial cells with determination of the concentration inhibiting 50% (IC50) and 90% (IC90) of the growth.
Table 2 provides the 90% growth inhibitory concentrations (IC90) in micromoles per liter of the compounds of present invention obtained against the strain Acinetobacter baumannii ATCC17961.

In the case of `CCc1cc(Nc2nccn3c(-c4ccc(OC)c(F)c4F)cnc23)ccc1C(=O)NCC[C@H](NC(=O)C1CC[N+](C)(CC2CNC2)CC1)C(=O)OC` (mixture of isomers) [Example 123, Methyl (2S)-2-[[1-(azetidin-3-ylmethyl)-1-methyl-piperidin-1-ium-4-carbonyl]amino]-4-[[4-[[3-(2,3-difluoro-4-methoxy-phenyl)imidazo[1,2-a]pyrazin-8-yl]amino]-2-ethyl-benzoyl]amino]butanoate formate 2,2,2-trifluoroacetate (Mixed Salt)], the IC90 is reported as 5 µM.

Same assay, conditions: Acinetobacter baumannii, ATCC17961, 16 h, 90% growth inhibition, Iso-Sensitest broth, OD 600 nm over 16 h, 35±2° C.; read-out: ATCC 17961 IC90

`CCc1cc(Nc2nccn3c(-c4ccc(OC(F)F)c(F)c4F)cnc23)ccc1C(=O)NCCCCC[N+](C)(C)CC1CNC1` [Example 96, Azetidin-3-ylmethyl-[5-[[4-[[3-[4-(difluoromethoxy)-2,3-difluoro-phenyl]imidazo[1,2-a]pyrazin-8-yl]amino]-2-ethyl-benzoyl]amino]pentyl]-dimethyl-ammonium bis(2,2,2-trifluoroacetate)] and `CCc1cc(Nc2nccn3c(-c4ccc(OC(F)F)c(F)c4F)cnc23)ccc1C(=O)NCCC1CC[N+](C)(CC2CNC2)CC1` (stereo not shown) [Example 10, N-[2-[1-(azetidin-3-ylmethyl)-1-methyl-piperidin-1-ium-4-yl]ethyl]-4-[[3-[4-(difluoromethoxy)-2,3-difluoro-phenyl]imidazo[1,2-a]pyrazin-8-yl]amino]-2-ethyl-benzamide Diformate] are within 1.5-fold of each other in IC90: 0.171 µM for the first, 0.157 µM for the second.

Going from `CCc1cc(Nc2nccn3c(-c4ccc(OC)c(F)c4F)cnc23)ccc1C(=O)NCCCNC(=O)C1CC[N+](C)(CC2CNC2)CC1` (stereo not shown) [Example 129, 1-(Azetidin-3-ylmethyl)-N-[3-[[4-[[3-(2,3-difluoro-4-methoxy-phenyl)imidazo[1,2-a]pyrazin-8-yl]amino]-2-ethyl-benzoyl]amino]propyl]-1-methyl-piperidin-1-ium-4-carboxamide bis(trifluoroacetate)] to `CCc1cc(Nc2nccn3c(-c4ccc(OC)c(F)c4F)cnc23)ccc1C(=O)NC1CC[N+](C)(CC2CNC2)CC1` (stereo not shown) [Example 136, N-[1-(Azetidin-3-ylmethyl)-1-methyl-piperidin-1-ium-4-yl]-4-[[3-(2,3-difluoro-4-methoxy-phenyl)imidazo[1,2-a]pyrazin-8-yl]amino]-2-ethyl-benzamide bis(2,2,2-trifluoroacetate)], the IC90 rises from 0.0862 µM to 0.955 µM (11-fold).

Compared with `CCc1cc(Nc2nccn3c(-c4ccc(OC(F)F)c(F)c4F)cnc23)ccc1C(=O)N1CCN(C(=O)C2CC[N+](C)(CC3CNC3)CC2)CC1C(=O)OC` (stereo not shown) [Example 93, Methyl 4-[1-(azetidin-3-ylmethyl)-1-methyl-piperidin-1-ium-4-carbonyl]-1-[4-[[3-[4-(difluoromethoxy)-2,3-difluoro-phenyl]imidazo[1,2-a]pyrazin-8-yl]amino]-2-ethyl-benzoyl]piperazine-2-carboxylate bis(2,2,2-trifluoroacetate)], `CCc1cc(Nc2nccn3c(-c4ccc(OC(F)F)c(F)c4F)cnc23)ccc1C(=O)N1CCN(C(=O)C2CC[N+](C)(CC34CC(N)(C3)C4)CC2)CC1` (stereo not shown) [Example 86, [4-[1-[(3-amino-1-bicyclo[1.1.1]pentanyl)methyl]-1-methyl-piperidin-1-ium-4-carbonyl]piperazin-1-yl]-[4-[[3-[4-(difluoromethoxy)-2,3-difluoro-phenyl]imidazo[1,2-a]pyrazin-8-yl]amino]-2-ethyl-phenyl]methanone bis(2,2,2-trifluoroacetate)] is 5.4-fold lower in IC90: 0.909 µM for the first, 0.168 µM for the second.

Going from `COc1ccc(-c2cnc3c(Nc4cc(C)c(C(=O)NCCOCC[N+](C)(C)C)c(F)c4)nccn23)c(F)c1F` [Example 18, 2-(2-(4-((3-(2,3-Difluoro-4-methoxyphenyl)imidazo[1,2-a]pyrazin-8-yl)amino)-2-fluoro-6-methylbenzamido)ethoxy)-N,N,N-trimethylethan-1-aminium Hydrogen Carbonate] to `CCOC(=O)C[N+](C)(C)CCOCCNC(=O)c1ccc(Nc2nccn3c(-c4ccc(OC)c(F)c4F)cnc23)cc1CC` [Example 75, N-(2-(2-(4-((3-(2,3-Difluoro-4-methoxyphenyl)imidazo[1,2-a]pyrazin-8-yl)amino)-2-ethylbenzamido)ethoxy)ethyl)-2-ethoxy-N,N-dimethyl-2-oxoethan-1-aminium Formate], the IC90 falls from 0.336 µM to 0.0658 µM (5.1-fold).

First: Cc1cc(Nc2nccn3c(-c4cn(C)nc4C(F)(F)F)cnc23)ccc1C(=O)N1CCN(C(=O)C[N+](C)(C)C)CC1 [Example 111, Trimethyl-[2-[4-[2-methyl-4-[[3-[1-methyl-3-(trifluoromethyl)pyrazol-4-yl]imidazo[1,2-a]pyrazin-8-yl]amino]benzoyl]piperazin-1-yl]-2-oxo-ethyl]ammonium Formate]
Second: COc1ccc(-c2cnc3c(Nc4ccc(C(=O)NC5CCN(C(=O)C[N+](C)(C)C)CC5)c(C)c4)nccn23)c(F)c1F [Example 60, 2-(4-(4-((3-(2,3-Difluoro-4-methoxyphenyl)imidazo[1,2-a]pyrazin-8-yl)amino)-2-methylbenzamido)piperidin-1-yl)-N,N,N-trimethyl-2-oxoethan-1-aminium Chloride]
The IC90 of the first is 17-fold higher: 2.8 µM for the first, 0.166 µM for the second.

Going from `CCc1cc(Nc2nccn3c(-c4ccc(OC)c(F)c4F)cnc23)ccc1C(=O)NCCCCC[N+](C)(CCCCN)CC(=O)O` (stereo not shown) [Example 105, 4-aminobutyl-(carboxymethyl)-[5-[[4-[[3-(2,3-difluoro-4-methoxy-phenyl)imidazo[1,2-a]pyrazin-8-yl]amino]-2-ethyl-benzoyl]amino]pentyl]-methyl-ammonium Formate] to `CCc1cc(Nc2nccn3c(-c4ccc(OC)c(F)c4F)cnc23)ccc1C(=O)NCC1CC[N+](C)(CC(=O)NCC2CCNC2)CC1` (stereo not shown) [Example 132, 4-[[3-(2,3-Difluoro-4-methoxy-phenyl)imidazo[1,2-a]pyrazin-8-yl]amino]-2-ethyl-N-[[1-methyl-1-[2-oxo-2-(pyrrolidin-3-ylmethylamino)ethyl]piperidin-1-ium-4-yl]methyl]benzamide bis(2,2,2-trifluoroacetate)], the IC90 rises from 0.144 µM to 0.32 µM (2.2-fold).

Going from `C[N+](C)(C)CCN[C@H]1C[C@@H](NC(=O)c2ccc(Nc3nccn4c(-c5c[nH]nc5C(F)(F)F)cnc34)cc2Cl)C1` [Example 108, 2-[[3-[[2-chloro-4-[[3-[3-(trifluoromethyl)-1H-pyrazol-4-yl]imidazo[1,2-a]pyrazin-8-yl]amino]benzoyl]amino]cyclobutyl]amino]ethyl-trimethyl-ammonium Formate] to `COc1ccc(-c2cnc3c(Nc4ccc(C(=O)N[C@H]5C[C@@H](NCC[N+](C)(C)C)C5)c(Cl)c4)nccn23)c(F)c1F` [Example 66, 2-[[3-[[2-Chloro-4-[[3-(2,3-difluoro-4-methoxy-phenyl)imidazo[1,2-a]pyrazin-8-yl]amino]benzoyl]amino]cyclobutyl]amino]ethyl-trimethyl-ammonium Formate], the IC90 falls from 1.59 µM to 0.0572 µM (28-fold).

Same assay, conditions: Acinetobacter baumannii, ATCC17961, 16 h, read-out: ATCC 17961 IC90

With `CCc1cc(Nc2nccn3c(-c4ccc(OC)c(F)c4F)cnc23)ccc1C(=O)NCCCCC[N+](C)(CCCN)CC(=O)O` (stereo not shown) [Example 104, 3-aminopropyl-(carboxymethyl)-[5-[[4-[[3-(2,3-difluoro-4-methoxy-phenyl)imidazo[1,2-a]pyrazin-8-yl]amino]-2-ethyl-benzoyl]amino]pentyl]-methyl-ammonium Formate] the IC90 was 0.118 µM.

Reference: patent US20230141600A1, “IMIDAZOPYRAZINE DERIVATIVES” (priority 2020, published 2023)
